These molecules were tested against TRKA (Homo sapiens (Human), UniProt P04629) (assay: Isolated TRK enzyme assay (HTRF KinEASE-TK), PV3144 TrkA enzyme assay). Conditions: arithmetic mean where more than one reading.
Format: biochemical
In short: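 His-tagged TrkA cytoplasmic domain preactivated with ATP 20 min, then with compound 20 min at room temperature before 1 µM final biotin-TK substrate; HTRF 665/620 nm read.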

Chain of TRKA (P04629 441-796): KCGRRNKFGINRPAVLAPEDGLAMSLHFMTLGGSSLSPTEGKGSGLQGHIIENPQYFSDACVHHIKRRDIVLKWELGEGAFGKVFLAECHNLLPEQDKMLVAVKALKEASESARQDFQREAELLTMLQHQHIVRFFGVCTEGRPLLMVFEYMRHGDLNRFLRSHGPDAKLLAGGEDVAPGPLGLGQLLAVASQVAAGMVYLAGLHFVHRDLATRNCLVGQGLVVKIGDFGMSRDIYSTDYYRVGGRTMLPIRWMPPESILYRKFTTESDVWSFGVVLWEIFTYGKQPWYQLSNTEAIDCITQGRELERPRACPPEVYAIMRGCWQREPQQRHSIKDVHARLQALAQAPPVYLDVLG

Row | Molecule | IC50
1 | CC(C)n1cc(C(=O)c2ccnc(NC(=O)Cc3cscn3)c2)c2cnccc21 [Example 181, N-(4-{[1-(propan-2-yl)-1H-pyrrolo[3,2-c]pyridin-3-yl]carbonyl}pyridin-2-yl)-2(1,3-thiazol-4-yl)acetamide] | 536 nM
2 | CC(C)n1cc(C(=O)c2ccnc(NC(=O)Cc3ccccc3OC(F)(F)F)c2)c2cnccc21 [Example 182, N-(4-{[1-(propan-2-yl)-1H-pyrrolo[3,2-c]pyridin-3-yl]carbonyl}pyridin-2-yl)-2-[2-(trifluoromethoxy)phenyl]acetamide] | 26.1 nM
3 | CC(C)n1cc(C(=O)c2ccnc(NC(=O)Cc3ccc(C#N)cc3)c2)c2cnccc21 [Example 183, 2-(4-cyanophenyl)-N-(4-{[1-(propan-2-yl)-1H-pyrrolo[3,2-c]pyridin-3-yl]carbonyl}pyridin-2-yl)acetamide] | 17.7 nM
4 | Cc1n[nH]c(CC(=O)Nc2cc(C(=O)c3cn(C(C)C)c4ccncc34)ccn2)n1 [Example 184, 2-(3-methyl-1H-1,2,4-triazol-5-yl)-N-(4-{[1-(propan-2-yl)-1H-pyrrolo[3,2-c]pyridin-3-yl]carbonyl}pyridin-2-yl)acetamide] | 3180 nM
5 | CC(C)n1cc(C(=O)c2ccnc(NC(=O)Cc3cncs3)c2)c2cnccc21 [Example 185, N-(4-{[1-(propan-2-yl)-1H-pyrrolo[3,2-c]pyridin-3-yl]carbonyl}pyridin-2-yl)-2(1,3-thiazol-5-yl)acetamide] | 1860 nM
6 | CC(C)n1cc(C(=O)c2ccnc(NC(=O)Cc3ccc(F)cc3)c2)c2cnccc21 [Example 186, 2(4-fluorophenyl)-N-(4-{[1-(propan-2-yl)-1H-pyrrolo[3,2-c]pyridin-3-yl]carbonyl}pyridin-2-yl)acetamide] | 13.3 nM
7 | CC(C)n1cc(C(=O)c2ccnc(NC(=O)Cc3nnn[nH]3)c2)c2cnccc21 [Example 187] | 9800 nM
8 | CC(C)n1cc(C(=O)c2ccnc(NC(=O)Cn3cc(C(C)(C)O)nn3)c2)c2cnccc21 [Example 188] | 477 nM
9 | CC(C)n1cc(C(=O)c2ccnc(NC(=O)Cc3coc(C4CC4)n3)c2)c2cnccc21 [Example 189, 2-(2-cyclopropyl-1,3-oxazol-4-yl)-N-(4-{[1-(propan-2-yl)-1H-pyrrolo[3,2-c]pyridin-3-yl]carbonyl}pyridin-2-yl)acetamide] | 13.6 nM
10 | CC(C)n1cc(C(=O)c2ccnc(NC(=O)Cn3nccn3)c2)c2cnccc21 [Example 190, N-(4-{[1-(propan-2-yl)-1H-pyrrolo[3,2-c]pyridin-3-yl]carbonyl}pyridin-2-yl)-2-(2H-1,2,3-triazol-2-yl)acetamide] | 775 nM
11 | CC(C)n1cc(C(=O)c2ccnc(NC(=O)Cc3cccc(OC(F)(F)F)c3)c2)c2cnccc21 [Example 191, N-(4-{[1-(propan-2-yl)-1H-pyrrolo[3,2-c]pyridin-3-yl]carbonyl}pyridin-2-yl)-2-[3-(trifluoromethoxy)phenyl]acetamide] | 7.41 nM
12 | CC(C)n1cc(C(=O)c2ccnc(NC(=O)Cc3nnnn3C)c2)c2cnccc21 [Example 192, 2-(1-methyl-1H-tetrazol-5-yl)-N-(4-{[1-(propan-2-yl)-1H-pyrrolo[3,2-c]pyridin-3-yl]carbonyl}pyridin-2-yl)acetamide] | 9800 nM
13 | CC(C)n1cc(C(=O)c2ccnc(NC(=O)Cn3cncn3)c2)c2cnccc21 [Example 193, N-(4-{[1-(propan-2-yl)-1H-pyrrolo[3,2-c]pyridin-3-yl]carbonyl}pyridin-2-yl)-2-(1H-1,2,4-triazol-1-yl)acetamide] | 10100 nM
14 | O=C(Cc1cccc(OC(F)(F)F)c1)Nc1cc(C(=O)c2cn(C3COC3)c3ccncc23)ccn1 [Example 194, N-(4-{[1-(oxetan-3-yl)-1H-pyrrolo[3,2-c]pyridin-3-yl]carbonyl}pyridin-2-yl)-2-[3-(trifluoromethoxy)phenyl]acetamide] | 13.8 nM
15 | N#Cc1ccc(CC(=O)Nc2cc(C(=O)c3cn(C4COC4)c4ccncc34)ccn2)cc1 [Example 195, 2-(4-cyanophenyl)-N-(4-{[1-(oxetan-3-yl)-1H-pyrrolo[3,2-c]pyridin-3-yl]carbonyl}pyridin-2-yl)acetamide] | 203 nM
16 | O=C(Cc1ccc(F)cn1)Nc1cc(C(=O)c2cn(C3COC3)c3ccncc23)ccn1 [Example 196, 2-(5-fluoropyridin-2-yl)-N-(4-{[1-(oxetan-3-yl)-1H-pyrrolo[3,2-c]pyridin-3-yl]carbonyl}pyridin-2-yl)acetamide] | 1280 nM
17 | O=C(Cc1coc(C2CC2)n1)Nc1cc(C(=O)c2cn(C3COC3)c3ccncc23)ccn1 [Example 197, 2-(2-cyclopropyl-1,3-oxazol-4-yl)-N-(4-{[1-(oxetan-3-yl)-1H-pyrrolo[3,2-c]pyridin-3-yl]carbonyl}pyridin-2-yl)acetamide] | 525 nM

Row | Molecule | IC50
18 | O=C(Cc1ccc(F)cc1F)Nc1cc(C(=O)c2cn(C3COC3)c3ccncc23)ccn1 [Example 198, 2-(2,4-difluorophenyl)-N-(4-{[1-(oxetan-3-yl)-1H-pyrrolo[3,2-c]pyridin-3-yl]carbonyl}pyridin-2-yl)acetamide] | 105 nM
19 | CC(C)c1cn(CC(=O)Nc2cc(C(=O)c3cn(C4COC4)c4ccncc34)ccn2)nn1 [Example 199, N-(4-{[1-(oxetan-3-yl)-1H-pyrrolo[3,2-c]pyridin-3-yl]carbonyl}pyridin-2-yl)-2-[4-(propan-2-yl)-1H-1,2,3-triazol-1-yl]acetamide] | 186 nM
20 | Cc1oc(C2CC2)nc1CC(=O)Nc1cc(C(=O)c2cn(C3COC3)c3ccncc23)ccn1 [Example 200, 2-(2-cyclopropyl-5-methyl-1,3-oxazol-4-yl)-N-(4-{[1-(oxetan-3-yl)-1H-pyrrolo[3,2-c]pyridin-3-yl]carbonyl}pyridin-2-yl)acetamide] | 174 nM
21 | CC(C)n1ncc(CC(=O)Nc2cc(C(=O)c3cn(C4COC4)c4ccncc34)ccn2)c1C(F)(F)F [Example 201] | 314 nM
22 | O=C(Cc1nc(C2CC2)oc1C1CC1)Nc1cc(C(=O)c2cn(C3COC3)c3ccncc23)ccn1 [Example 202, 2-(2,5-dicyclopropyl-1,3-oxazol-4-yl)-N-(4-{[1-(oxetan-3-yl)-1H-pyrrolo[3,2-c]pyridin-3-yl]carbonyl}pyridin-2-yl)acetamide] | 437 nM
23 | O=C(Cc1ccc(F)cc1)Nc1cc(C(=O)c2cn(C3COC3)c3ccncc23)ccn1 [Example 204, 2-(4-fluorophenyl)-N-(4-{[1-(oxetan-3-yl)-1H-pyrrolo[3,2-c]pyridin-3-yl]carbonyl}pyridin-2-yl)acetamide] | 227 nM
24 | O=C(Nc1cc(C(=O)c2cn(C3COC3)c3ccncc23)ccn1)c1cccc(OC(F)(F)F)c1 [Example 205, N-(4-{[1-(oxetan-3-yl)-1H-pyrrolo[3,2-c]pyridin-3-yl]carbonyl}pyridin-2-yl)-3-(trifluoromethoxy)benzamide] | 33 nM
25 | N#Cc1ccc(CC(=O)Nc2cc(C(=O)c3cn(C4COC4)c4ccncc34)ccn2)cc1C(F)(F)F [Example 221, 2-[4-cyano-3-(trifluoromethyl)phenyl]-N-(4-{[1-(oxetan-3-yl)-1H-pyrrolo[3,2-c]pyridin-3-yl]carbonyl}pyridin-2-yl)acetamide] | 138 nM
26 | CC(CO)n1cc(C(=O)c2cc(NC(=O)Cc3ccc(C(F)(F)F)cc3)ccn2)c2cnccc21 (stereo not shown) [Example 230, N-(2-{[1-(1-hydroxypropan-2-yl)-1H-pyrrolo[3,2-c]pyridin-3-yl]carbonyl}pyridin-4-yl)-2-[4-(trifluoromethyl)phenyl]acetamide] | 18.1 nM
27 | CC(C)(CO)n1cc(C(=O)c2cc(NC(=O)Cc3ccc(C(F)(F)F)cc3)ccn2)c2cnccc21 [Example 231, N-(2-{[1-(1-hydroxy-2-methylpropan-2-yl)-1H-pyrrolo[3,2-c]pyridin-3-yl]carbonyl}pyridin-4-yl)-2-[4-(trifluoromethyl)phenyl]acetamide] | 12.8 nM
28 | CC(C)(CO)n1cc(C(=O)c2cc(NC(=O)Cc3cccc(C(F)(F)F)c3)ccn2)c2cnccc21 [Example 232, N-(2-{[1-(1-hydroxy-2-methylpropan-2-yl)-1H-pyrrolo[3,2-c]pyridin-3-yl]carbonyl}pyridin-4-yl)-2-[3-(trifluoromethyl)phenyl]acetamide] | 11.3 nM
29 | CC(C)n1cc(C(=O)c2ccnc(NC(=O)Cc3ccc(C#N)c(C(F)(F)F)c3)c2)c2cnccc21 [Example 233, 2-[4-cyano-3-(trifluoromethyl)phenyl]-N-(4-{[1-(propan-2-yl)-1H-pyrrolo[3,2-c]pyridin-3-yl]carbonyl}pyridin-2-yl)acetamide] | 24.4 nM
30 | CC(C)(CO)n1cc(C(=O)c2cc(NC(=O)Cn3ccc(C4CC4)n3)ccn2)c2cnccc21 [Example 234, 2-(3-cyclopropyl-1H-pyrazol-1-yl)-N-(2-{[1-(1-hydroxy-2-methylpropan-2-yl)-1H-pyrrolo[3,2-c]pyridin-3-yl]carbonyl}pyridin-4-yl)acetamide] | 16.5 nM
31 | CC(C)(CO)n1cc(C(=O)c2cncc(NC(=O)Cc3cccc(C(F)(F)F)c3)c2)c2cnccc21 [Example 235, N-(5-{[1-(1-hydroxy-2-methylpropan-2-yl)-1H-pyrrolo[3,2-c]pyridin-3-yl]carbonyl}pyridin-3-yl)-2-[3-(trifluoromethyl)phenyl]acetamide] | 2.87 nM
32 | CC(C)(CO)n1cc(C(=O)c2cncc(NC(=O)Cn3ccc(C(F)(F)F)n3)c2)c2cnccc21 [Example 236, N-(5-{[1-(1-hydroxy-2-methylpropan-2-yl)-1H-pyrrolo[3,2-c]pyridin-3-yl]carbonyl}pyridin-3-yl)-2-[3-(trifluoromethyl)-1H-pyrazol-1-yl]acetamide] | 43.1 nM
33 | CC(C)(CO)n1cc(C(=O)c2cncc(NC(=O)Cn3cc(C4CC4)nn3)c2)c2cncc(F)c21 [Example 240, 2-(4-cyclopropyl-1H-1,2,3-triazol-1-yl)-N-(5-{[7-fluoro-1-(1-hydroxy-2-methylpropan-2-yl)-1H-pyrrolo[3,2-c]pyridin-3-yl]carbonyl}pyridin-3-yl)acetamide] | 24 nM
34 | N-(2-{[1-(1-hydroxypropan-2-yl)-1H-pyrrolo[3,2-c]pyridin-3-yl]carbonyl}pyridin-4-yl)-2-[4-(trifluoromethyl)phenyl]acetamide [Example 84] | 141 nM

Reference: patent publication US9163021B2, “Pyrrolo[3,2-c]pyridine tropomyosin-related kinase inhibitors” (Pfizer Limited, priority 2012, dated 2015)
